Data reported in ChEMBL document CHEMBL5126505, “Adenosine receptor antagonists: Recent advances and therapeutic perspective” (Eur J Med Chem, 2022).
One block for each molecule: values may come before it.

Tests used:
Adenosine receptor A3 [1] = molecular target: T1, Adenosine receptor A3 (Homo sapiens, UniProt P0DMS8); assay: biochemical
T1 sequence (P0DMS8 whole entry): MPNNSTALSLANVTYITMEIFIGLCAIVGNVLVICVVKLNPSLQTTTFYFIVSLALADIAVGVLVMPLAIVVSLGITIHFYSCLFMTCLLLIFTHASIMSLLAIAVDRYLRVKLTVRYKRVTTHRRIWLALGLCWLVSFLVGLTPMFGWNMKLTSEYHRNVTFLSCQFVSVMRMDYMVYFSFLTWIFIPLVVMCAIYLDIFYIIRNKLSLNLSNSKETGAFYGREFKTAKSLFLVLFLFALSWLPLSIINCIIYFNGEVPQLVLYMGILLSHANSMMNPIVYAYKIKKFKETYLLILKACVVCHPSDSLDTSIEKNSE
Description: Displacement of [3H]NECA from human adenosine A3 receptor expressed in HeLa cells measured by scintillation counting assay

Adenosine receptor A3 [2] = molecular target: T1, Adenosine receptor A3
Description: Antagonist activity at human adenosine A3 receptor expressed in CHO cells assessed as cAMP level measured by enzyme immunoassay

[3] = molecular target: T2, Amine oxidase [flavin-containing] B (Homo sapiens, UniProt P27338)
T2 sequence (P27338 whole entry): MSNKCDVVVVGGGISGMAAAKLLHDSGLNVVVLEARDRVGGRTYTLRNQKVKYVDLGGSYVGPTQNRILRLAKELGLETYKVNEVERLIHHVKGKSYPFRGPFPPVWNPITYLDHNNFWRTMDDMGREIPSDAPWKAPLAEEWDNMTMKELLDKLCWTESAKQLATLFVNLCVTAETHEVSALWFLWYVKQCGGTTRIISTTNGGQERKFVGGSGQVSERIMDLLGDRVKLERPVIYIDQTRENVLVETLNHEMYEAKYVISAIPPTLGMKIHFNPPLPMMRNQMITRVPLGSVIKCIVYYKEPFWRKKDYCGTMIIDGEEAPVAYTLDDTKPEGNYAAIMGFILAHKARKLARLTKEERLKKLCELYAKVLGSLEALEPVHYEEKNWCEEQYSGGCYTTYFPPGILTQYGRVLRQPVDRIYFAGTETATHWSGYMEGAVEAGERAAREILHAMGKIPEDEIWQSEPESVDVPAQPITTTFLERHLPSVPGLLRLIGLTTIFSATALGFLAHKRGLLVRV
Description: Inhibition of MAO-B (unknown origin)

Adenosine receptor A2a [4] = molecular target: T3, Adenosine receptor A2a (Homo sapiens, UniProt P29274)
Description: Binding affinity to human adenosine A2A receptor

Adenosine receptor A1 [5] = molecular target: T4, Adenosine receptor A1 (Homo sapiens, UniProt P30542)
T4 sequence (P30542 whole entry): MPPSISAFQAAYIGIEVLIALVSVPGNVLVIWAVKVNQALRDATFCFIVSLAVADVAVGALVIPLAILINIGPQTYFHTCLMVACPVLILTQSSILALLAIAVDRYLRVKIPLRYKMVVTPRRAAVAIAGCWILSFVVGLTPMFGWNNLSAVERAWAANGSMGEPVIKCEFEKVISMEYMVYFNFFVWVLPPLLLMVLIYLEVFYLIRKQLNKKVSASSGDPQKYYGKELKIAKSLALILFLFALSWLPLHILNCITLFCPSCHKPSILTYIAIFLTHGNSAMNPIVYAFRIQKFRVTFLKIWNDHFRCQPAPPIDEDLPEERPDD
Description: Antagonist activity at human adenosine A1A receptor

in vivo [6] = details: male, Wistar, rat
Description: Half-life in male Wistar rat

Adenosine receptor A2b [7] = molecular target: T5, Adenosine receptor A2b (Homo sapiens, UniProt P29275); assay: Antagonist activity at human adenosine A2B receptor expressed in HEK293 cells assessed as inhibition of cAMP production; format: functional, cell-based
T5 sequence (P29275 whole entry): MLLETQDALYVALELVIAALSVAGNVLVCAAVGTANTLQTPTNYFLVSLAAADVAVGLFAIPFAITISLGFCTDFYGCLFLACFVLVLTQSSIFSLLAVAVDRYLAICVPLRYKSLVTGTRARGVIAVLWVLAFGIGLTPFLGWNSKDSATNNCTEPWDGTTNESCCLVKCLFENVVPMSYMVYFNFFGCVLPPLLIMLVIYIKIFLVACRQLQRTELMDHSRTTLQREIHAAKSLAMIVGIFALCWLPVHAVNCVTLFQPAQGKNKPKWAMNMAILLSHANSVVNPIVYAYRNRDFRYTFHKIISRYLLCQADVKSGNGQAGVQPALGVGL

Adenosine receptor A2b [8] = molecular target: T5, Adenosine receptor A2b
Description: Antagonist activity at human adenosine A2B receptor expressed in mouse NIH/3T3 cells assessed as inhibition of NECA-induced IL-6 release

Adenosine receptor A2b [9] = molecular target: T5, Adenosine receptor A2b; remark: listed apart in the source
Description: Binding affinity to human adenosine A2B receptor

in vitro [10] = details: human, liver microsomes
in vitro [11] = details: human, Caco-2
Description: Apparent permeability in human Caco-2 cells

Adenosine receptor A1 [12] = molecular target: T4, Adenosine receptor A1; assay: Displacement of [3H]CCPA from human adenosine […] receptor expressed in CHO cells measured by radioligand competition assay; format: cell-based
Adenosine receptor A2a [13] = molecular target: T3, Adenosine receptor A2a; assay: Displacement of [3H]NECA from human adenosine A2A receptor expressed in CHO cells measured by radioligand competition assay; format: cell-based
Rattus norvegicus [14] = species: Rattus norvegicus; assay: animal or person; details: po, 4 h
Description: Reversal of haloperidol-induced catalepsy in rat administered orally and measured after 4 hrs

Adenosine receptor A2a [15] = molecular target: T3, Adenosine receptor A2a; assay: biochemical
Description: Displacement of [3H]ZM-241385 from human adenosine A2A receptor expressed in HEK293 cells incubated for 60 mins and measured by scintillation counting assay

Rattus norvegicus [16] = species: Rattus norvegicus; assay: animal or person; details: po
Description: Antiparkinson's activity in L-DOPA induced dyskinesia rat model assessed as reduction in contralateral rotations administered orally

in vivo [17] = details: male, Wistar, rat, iv, 3 mg/kg
Description: Half-life in male Wistar rat at 3 mg/kg, iv

T3 sequence (P29274 whole entry): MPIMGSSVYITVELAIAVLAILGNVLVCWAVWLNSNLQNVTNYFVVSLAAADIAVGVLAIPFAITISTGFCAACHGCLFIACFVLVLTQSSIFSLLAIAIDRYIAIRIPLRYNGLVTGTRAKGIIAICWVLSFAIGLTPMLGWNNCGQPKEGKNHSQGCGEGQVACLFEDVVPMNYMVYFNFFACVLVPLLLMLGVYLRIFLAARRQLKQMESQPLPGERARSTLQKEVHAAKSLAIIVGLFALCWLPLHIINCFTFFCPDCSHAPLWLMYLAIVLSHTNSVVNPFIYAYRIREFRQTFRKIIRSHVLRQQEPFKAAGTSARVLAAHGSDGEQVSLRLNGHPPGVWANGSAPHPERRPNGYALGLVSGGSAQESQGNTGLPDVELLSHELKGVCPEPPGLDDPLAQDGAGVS

- IC50 [3]: 112 nM
- Ki (Adenosine receptor A2a [4]): 28.4 nM
Compound: Cn1c(=O)c2c(nc(/C=C/c3cccc(Br)c3)n2C)n(C)c1=O

- Ki (Adenosine receptor A1 [5]): 2 nM
- half-life (in vivo [6]): 2 h
Compound: CCCn1c(Oc2ccc(F)c(F)c2)nc2nc(C3CCCC3)[nH]c2c1=O

- half-life at 0.1 µM (in vitro [10]): > 0.683 h
- Papp (in vitro [11]): 77 ×10⁻⁶ cm/s
Compound: Nc1cc(-c2ccco2)c2oc(-c3ccco3)nc2c1

- Ki (Adenosine receptor A2a [15]): 0.4 nM
- half-life (in vivo [17]): 1 h
Compound: COCCOc1ccc(N2CCN(CCn3c(=O)n(C)c4c3nc(N)n3nc(-c5nccs5)nc43)CC2)c(F)c1
- ED50 (Rattus norvegicus [14]): 4.49 mg/kg
- ED50 (Rattus norvegicus [16]): 1.2 mg/kg

More lines, now with the values behind:

Compound: CCn1nnc([C@H]2O[C@@H](n3cnc4c(N)nc(NC(C)Cc5ccc(OC)cc5)nc43)[C@H](O)[C@@H]2O)n1 (some centres not stated)
- Ki (Adenosine receptor A3 [1]): 13 nM
- Ki (Adenosine receptor A3 [2]): 6 nM

Compound: CCCn1c(=O)c2[nH]c(-c3cnn(CC#Cc4cccc(OC(F)(F)F)c4)c3)nc2n(CCC)c1=O
- Ki (Adenosine receptor A2b [7]): 8 nM
- IC50 (Adenosine receptor A2b [8]): 107 nM
- Ki (Adenosine receptor A2b [9]): 13 nM

Compound: O=c1oc2c(O)cccc2cc1-c1ccc(Br)cc1
- Ki (Adenosine receptor A1 [12]): 2400 nM
- Ki (Adenosine receptor A2a [13]): 12100 nM
